Earlier results as cited in patent US20240268416A1, “ANIMAL FEED ADDITIVE COMPOSITIONS AND METHODS OF USE” (PMI Nutrition, LLC, priority 2023, published 2024).

Tested on: C. elegans
Conditions: C. elegans assay

## urolithins
  concentration needed to obtain a positive effect on muscle function: 50 µM
  concentration required to trigger the muscle function response: 11.4 µg/mL
